Patent US20230391763A1, “MODULATORS OF THE INTEGRATED STRESS RESPONSE PATHWAY” (Evotec International GmbH, priority 2020, published 2023)

System: Tunicamycin induced ISR (ATF4 signal ratio between nucleus and cytoplasm) in wild-type HEK293 cells
Test: HEK-ATF4 High Content Imaging assay
Assay type: cell-based
Details: Homo sapiens, prevention of Tunicamycin induced ISR, 6 h incubation, ATF4 immunofluorescence nucleus/cytoplasm ratio
Protocol: HEK-ATF4 High Content Imaging Assay
Example compounds were tested in the HEK-ATF4 High Content Imaging assay to assess their pharmacological potency to prevent Tunicamycin induced ISR. Wild-type HEK293 cells were plated in 384-well imaging assay plates at a density of 12,000 cells per well in growth medium (containing DMEM/F12, 10% FBS, 2 mM L-Glutamine, 100 U/mL Penicillin—100 μg/mL Streptomycin) and incubated at 37° C., 5% CO2. 24 h later, the medium was changed to 50 μL assay medium per well (DMEM/F12, 0.3% FBS, 2 mM L-Glutamine, 100 U/mL Penicillin—100 μg/mL Streptomycin). Example compounds were serially diluted in DMSO, spotted into intermediate plates and prediluted with assay medium containing 3.3 μM Tunicamycin to give an 11-fold excess of final assay concentration. In addition to the example compound testing area, the plates also contained multiples of control wells for assay normalization purposes, wells containing Tunicamycin but no example compounds (High control), as well as wells containing neither example compound nor Tunicamycin (Low control). The assay was started by transferring 5 μL from the intermediate plate into the assay plates, followed by incubation for 6 h at 37° C., 5% CO2. Subsequently, cells were fixed (4% PFA in PBS, 20 min at r.t.) and submitted to indirect ATF4 immunofluorescence staining (primary antibody rabbit anti ATF4, clone D4B8, Cell Signaling Technologies; secondary antibody Alexa Fluor 488 goat anti-rabbit IgG (H+L), Thermofisher Scientific). Nuclei were stained using Hoechst dye (Thermofisher Scientific), and plates were imaged on an Opera Phenix High Content imaging platform equipped with 405 nm and 488 nm excitation. Finally, images were analyzed using script based algorithms. The main readout HEK-ATF4 monitored the ATF4 signal ratio between nucleus and cytoplasm. Tunicamycin induced an increase in the overall ATF4 ratio signal, which was prevented by ISR modulating example compounds. In addition, HEK-CellCount readout was derived from counting the number of stained nuclei corresponding to healthy cells. This readout served as an internal toxicity control.

| Compound | IC50 |
| --- | --- |
| O=C(N[C@H]1CC[C@H](c2nnc(OCCOC(F)(F)F)o2)NC1)c1ccc(C(F)(F)F)c(Cl)c1 [Example 36, 3-chloro-N-[(3S,6R)-6-{5-[2-(trifluoromethoxy)ethoxy]-1,3,4-oxadiazol-2-yl}piperidin-3-yl]-4-(trifluoromethyl)benzamide] | 2000 to 15000 nM |
| O=C(N[C@H]1CC[C@H](c2nnc(OCCOC(F)(F)F)o2)NC1)c1cn2cc(Cl)cc2cn1 [Example 15, 7-chloro-N-[(3S,6R)-6-{5-[2-(trifluoromethoxy)ethoxy]-1,3,4-oxadiazol-2-yl}piperidin-3-yl]pyrrolo[1,2-a]pyrazine-3-carboxamide] | 2000 to 15000 nM |
| O=C(N[C@H]1CC[C@H](c2nnc(OCCOC(F)(F)F)o2)NC1)c1cnc2cc(Cl)ccc2c1 [Example 3, 7-chloro-N-[(3S,6R)-6-{5-[2-(trifluoromethoxy)ethoxy]-1,3,4-oxadiazol-2-yl}piperidin-3-yl]quinoline-3-carboxamide] | 1 to 500 nM |
| O=C(N[C@@H]1CC[C@@H](c2nnc([C@H]3C[C@@H](OC(F)(F)F)C3)o2)NC1)c1cnc2cc(Cl)ccc2c1 [Example 52, 7-chloro-N-[(3R,6S)-6-{5-[(1s,3s)-3-(trifluoromethoxy)cyclobutyl]-1,3,4-oxadiazol-2-yl}piperidin-3-yl]quinoline-3-carboxamide] | 1 to 500 nM |
| O=C(N[C@H]1CC[C@H](c2nnc(OC/C=C/C(F)(F)F)o2)NC1)c1cnc2cc(Cl)ccc2c1 [Example 48, 7-chloro-N-[(3S,6R)-6-[5-[(E)-4,4,4-trifluorobut-2-enoxy]-1,3,4-oxadiazol-2-yl]-3-piperidyl]quinoline-3-carboxamide] | 1 to 500 nM |
| O=C(N[C@H]1CC[C@H](c2nnc(OCCOC(F)(F)F)o2)NC1)c1cccc(Cl)c1 [Example 23, 3-chloro-N-[(3S,6R)-6-{5-[2-(trifluoromethoxy)ethoxy]-1,3,4-oxadiazol-2-yl}piperidin-3-yl]benzamide] | 2000 to 15000 nM |
| O=C(N[C@H]1CC[C@H](c2nnc(OCCOC(F)(F)F)o2)NC1)c1ncc2cc(Cl)ccc2n1 [Example 6, 6-chloro-N-[(3S,6R)-6-{5-[2-(trifluoromethoxy)ethoxy]-1,3,4-oxadiazol-2-yl}piperidin-3-yl]quinazoline-2-carboxamide] | 1 to 500 nM |
| O=C(N[C@H]1CC[C@H](c2nnc(OCCOC(F)(F)F)o2)NC1)c1ccc2cc(C(F)(F)F)ccc2n1 [Example 2, N-[(3S,6R)-6-{5-[2-(trifluoromethoxy)ethoxy]-1,3,4-oxadiazol-2-yl}piperidin-3-yl]-6-(trifluoromethyl)quinoline-2-carboxamide] | 1 to 500 nM |
| O=C(N[C@H]1CC[C@H](c2nnc(OCCOC(F)(F)F)o2)NC1)c1cnc2ccc(Cl)cc2c1 [Example 8, 6-chloro-N-[(3S,6R)-6-{5-[2-(trifluoromethoxy)ethoxy]-1,3,4-oxadiazol-2-yl}piperidin-3-yl]quinoline-3-carboxamide] | 1 to 500 nM |
| O=C(N[C@H]1CC[C@H](c2nnc(OCCOC(F)(F)F)o2)NC1)c1ccc(Cl)cc1 [Example 18, 4-chloro-N-[(3S,6R)-6-{5-[2-(trifluoromethoxy)ethoxy]-1,3,4-oxadiazol-2-yl}piperidin-3-yl]benzamide] | 2000 to 15000 nM |
| O=C(N[C@H]1CC[C@H](c2nnc(OCCOC(F)(F)F)o2)NC1)c1ccc(OCC(F)(F)F)nc1 [Example 13, 6-(2,2,2-trifluoroethoxy)-N-[(3S,6R)-6-{5-[2-(trifluoromethoxy)ethoxy]-1,3,4-oxadiazol-2-yl}piperidin-3-yl]pyridine-3-carboxamide] | 2000 to 15000 nM |
| O=C(N[C@H]1CC[C@H](c2nnc(OCCOC(F)(F)F)o2)NC1)c1cnc2cc(Cl)c(F)cc2c1 [Example 11, 7-chloro-6-fluoro-N-[(3S,6R)-6-{5-[2-(trifluoromethoxy)ethoxy]-1,3,4-oxadiazol-2-yl}piperidin-3-yl]quinoline-3-carboxamide] | 1 to 500 nM |
| O=C(N[C@H]1CC[C@H](c2nnc(OCCOC(F)(F)F)o2)NC1)c1ccc(Cl)c(OC(F)(F)F)c1 [Example 40, 4-chloro-3-(trifluoromethoxy)-N-[(3S,6R)-6-{5-[2-(trifluoromethoxy)ethoxy]-1,3,4-oxadiazol-2-yl}piperidin-3-yl]benzamide] | 2000 to 15000 nM |
| Cn1c(C(=O)N[C@H]2CC[C@H](c3nnc(OCCOC(F)(F)F)o3)NC2)cc2cc(C(F)(F)F)ccc21 [Example 22, 1-methyl-N-[(3S,6R)-6-{5-[2-(trifluoromethoxy)ethoxy]-1,3,4-oxadiazol-2-yl}piperidin-3-yl]-5-(trifluoromethyl)-1H-indole-2-carboxamide] | 500 to 2000 nM |
| O=C(N[C@H]1CC[C@H](c2nnc(OCCOC(F)(F)F)o2)NC1)c1cc2cc(Cl)ccc2o1 [Example 9, 5-chloro-N-[(3S,6R)-6-{5-[2-(trifluoromethoxy)ethoxy]-1,3,4-oxadiazol-2-yl}piperidin-3-yl]-1-benzofuran-2-carboxamide] | 1 to 500 nM |
| O=C(N[C@H]1CC[C@H](c2nnc(OCCOC(F)(F)F)o2)NC1)C1=Cc2ccc(Cl)cc2OC1 [Example 4, 7-chloro-N-[(3S,6R)-6-{5-[2-(trifluoromethoxy)ethoxy]-1,3,4-oxadiazol-2-yl}piperidin-3-yl]-2H-chromene-3-carboxamide] | 1 to 500 nM |
| O=C(N[C@H]1CC[C@H](c2nnc(OCCOC(F)(F)F)o2)NC1)c1cc(Cl)c(Cl)cn1 [Example 38, 4,5-dichloro-N-[(3S,6R)-6-{5-[2-(trifluoromethoxy)ethoxy]-1,3,4-oxadiazol-2-yl}piperidin-3-yl]pyridine-2-carboxamide] | 2000 to 15000 nM |
| O=C(N[C@@H]1CC[C@@H](c2nnc(OCCOC(F)(F)F)o2)NC1)c1ccc(Cl)c(Cl)c1 [Example 54, 3,4-dichloro-N-[(3R,6S)-6-[5-[2-(trifluoromethoxy)ethoxy]-1,3,4-oxadiazol-2-yl]-3-piperidyl]benzamide] | 500 to 2000 nM |
